From patent US20100189813A1, “Cidal formulations and methods of use” (priority 2006, published 2010)

Columns and labels:
Anopheles mosquitoes = assay: Anopheles mosquito larvae survivorship on exposure to copper; format: in vivo
Source text: A solution in water of copper sulphate pentahydrate at 5 weight percent was used to treat Anopheles mosquitoes. The mosquitoes were wild caught and they were not separated by larval stage so there is some variability in the response to the test. The data is based upon 1000 larvae per treatment. Amounts of copper were used at 0.37 ppm, 0.88 ppm, 1.47 ppm, and 8.4 ppm. […] The Y-axis is the percentage of survivorship and the X-axis is the number of days of exposure.
The tests were repeated wherein a copper compound in inert carrier was treated with a detergent as an additive to determine if the additive increased the efficacy of the copper. […] The first control is FIG. 2, Stage 1 larvae, the duplicate control, Stage 1 larvae, is FIG. 3 wherein, in both Figures, the Y-axis is the percentage of survivorship and the X-axis is the number of days of exposure.
Kathon was added at 0.02 weight percent. […] The Y-axis is the percentage of survivorship and the X-axis is the number of days of exposure.
The copper was used at the 0.25 ppm level. […] The Y-axis is the percentage of survivorship and the X-axis is the number of days of exposure.

aerial bacteria = assay: Agar growth media plates left open to the atmosphere for 6 hours (disinfectant efficacy), bacteria; format: cell-based; details: copper sulphate at 5%; plates open 6 hours
Experimental: (§1) 1. The Unformulated composition containing 5 weight percent of copper sulphate in an inert carrier was added directly to growth media, namely, Agar, in order to evaluate it's efficacy as a disinfectant. 2. The same solution was added to bacteria and its growth was monitored by optical density readings as a function of time. 3. The same solution alone or in combination with a detergent was added to bacteria or fungi and incubated for 10 minutes or 60 minutes and the incubation mix was plated on to agar growth media in order to estimate survival.
(§2) a. The Unformulated composition at different concentrations was added to live bacterial agar media and the agar plates were exposed to the atmosphere by keeping the Petri plates open to the atmosphere for 6 hours. By doing this it was expected to allow aerial bacteria to grow in the plates.
(§3) Control plates without the Unformulated composition contained confluent colonies of bacteria (infinite) and fungi.

fungi = assay: Agar growth media plates left open to the atmosphere for 6 hours (disinfectant efficacy), fungi; format: cell-based; details: copper sulphate at 5%; plates open 6 hours
Experimental: as §1, §2, §3

E. Coli bacteria = assay: Incubation for 10 or 60 minutes, then plating on agar to estimate survival, bacteria; format: cell-based; details: detergent alone
Experimental: Three different types of experiments were conducted in order to assess the efficacy of an inventive solution on E. Coli bacteria and fungi.
as §1
c. Bacteria with the Unformulated composition was incubated for 10 minutes or 60 minutes before plating them. […] Because of the closeness of the data points, the inventors herein would point out that the top line is the control, the next set of lines lower are constituted of 0.1, 0.2, 0.3, 0.4, 0.5 of ET and 1 ml Matrix, while the bottom set of lines are constituted of 2 ml Matrix, 3 ml Matrix, 3 ml Matrix, 4 ml Matrix, and 5 ml of Matrix.
4. The effect of adding detergents, that is, sodium dodecyl sulfate to the Unformulated composition.
The detergent alone allowed growth up to a concentration of 0.2%. […]

SMILES	survivorship (Anopheles mosquitoes; 0.37 ppm copper, wild caught larvae not separated by larval stage, 1000 larvae per treatment)	no-effect dose (Anopheles mosquitoes; copper, first part of the experiment, no detergent)	death of larvae (Anopheles mosquitoes; more than 0.8 ppm copper (0.88, 1.47, 8.4 ppm tested), by day 3, wild caught larvae)	bacterial growth on plates (aerial bacteria)	fungal growth on plates (fungi)	concentration at which bacterial growth was still allowed (E. Coli bacteria)
O.O.O.O.O.O=S(=O)([O-])[O-].[Cu+2] [copper sulphate pentahydrate]	~100%	0.37 ppm	died by day 3	allowed bacterial growth	allowed no fungal growth	–
CCCCCCCCCCCCOS(=O)(=O)[O-].[Na+] [sodium dodecyl sulfate]	–	–	–	–	–	≤ 0.2%
